Assay results: ChEMBL document CHEMBL1201862, “PubChem BioAssay data set” (2004)
The source made the active and inactive calls.

Assays:
[1] = NIH-3T3 fibroblast cytotoxicity, dose response, cytotoxicity control, cell-based, fluorescence, Alamar Blue, secondary assay (AID 2327); type: functional;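 note: NIH-3T3 mouse fibroblasts cultured with fluconazole at 8 µg/mL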
[2] = system: BJ; test: cytotoxicity toward BJ-TERT fibroblasts, dose response, cell-based, RAS-independent, luminescence (AID 1933); type: functional; conditions: Homo sapiens
[3] = biological target: Galanin receptor type 2 (Homo sapiens, UniProt O43603); test: Dose Response cell-based high-throughput screening assay to identify antagonists of galanin receptor 2 (GALR2). [Related pubchem assays: 828, 866 ]; type: functional
Sequence of Galanin receptor type 2 (O43603 whole entry): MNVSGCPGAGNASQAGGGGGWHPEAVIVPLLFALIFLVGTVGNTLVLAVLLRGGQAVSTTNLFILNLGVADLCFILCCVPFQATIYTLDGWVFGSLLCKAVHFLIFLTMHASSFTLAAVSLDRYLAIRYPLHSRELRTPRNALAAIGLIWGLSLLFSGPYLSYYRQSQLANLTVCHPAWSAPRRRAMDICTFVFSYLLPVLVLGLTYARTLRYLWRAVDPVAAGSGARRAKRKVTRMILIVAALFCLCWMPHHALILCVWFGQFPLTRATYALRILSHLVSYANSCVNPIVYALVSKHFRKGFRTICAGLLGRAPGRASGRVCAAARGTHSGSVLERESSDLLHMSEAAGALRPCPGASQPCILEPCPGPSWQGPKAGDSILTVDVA

[4] = system: BJ; test: cells; type: functional, cell-based; conditions: Homo sapiens
[5] = C. albicans growth with fluconazole, confirmation, fluorescence, retest (AID 2467); type: functional, cell-based
[6] = system: BJ; test: cytotoxicity toward BJ-TERT-LT-ST fibroblasts, dose response, cell-based, RAS-independent, luminescence (AID 1935); type: functional; conditions: Homo sapiens;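 note: BJ fibroblasts immortalized with TERT plus LT and ST oncogenes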
[7] = cytotoxicity toward DRD oncogenic fibroblasts, dose response, cell-based, non-viral oncogenic, luminescence (AID 1934); type: functional; conditions: Homo sapiens
[8] = biological target: G-protein coupled receptor 55 (Homo sapiens, UniProt Q9Y2T6); test: GPR55 agonists via beta-arrestin recruitment, primary screen, imaging, U2OS cells, beta-arrestin-GFP redistribution (AID 1961); type: functional
Sequence of G-protein coupled receptor 55 (Q9Y2T6 whole entry): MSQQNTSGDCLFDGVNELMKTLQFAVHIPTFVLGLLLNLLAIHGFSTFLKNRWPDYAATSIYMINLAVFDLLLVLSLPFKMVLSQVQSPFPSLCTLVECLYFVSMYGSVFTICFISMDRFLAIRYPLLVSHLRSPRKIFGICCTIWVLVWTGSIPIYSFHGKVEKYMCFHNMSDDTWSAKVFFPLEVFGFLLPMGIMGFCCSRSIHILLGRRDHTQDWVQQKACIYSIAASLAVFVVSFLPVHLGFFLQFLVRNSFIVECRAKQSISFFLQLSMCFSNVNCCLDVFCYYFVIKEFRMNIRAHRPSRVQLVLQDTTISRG

[9] = biological target: T1, Heat shock factor protein 1 (Mus musculus, UniProt P38532); test: HSF1 potentiators in luciferase reporter cells, confirmation, cell-based, NIH3T3, luminescence, dose retest (AID 435004); type: functional;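 note: stress induced by proteasome inhibitor MG132 added 30 min after compound; luciferase reporter driven by HSF1 response element in NIH3T3 cells; actives raise luminescence as potentiators of the MG132 stress response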
T1 sequence (P38532 whole entry): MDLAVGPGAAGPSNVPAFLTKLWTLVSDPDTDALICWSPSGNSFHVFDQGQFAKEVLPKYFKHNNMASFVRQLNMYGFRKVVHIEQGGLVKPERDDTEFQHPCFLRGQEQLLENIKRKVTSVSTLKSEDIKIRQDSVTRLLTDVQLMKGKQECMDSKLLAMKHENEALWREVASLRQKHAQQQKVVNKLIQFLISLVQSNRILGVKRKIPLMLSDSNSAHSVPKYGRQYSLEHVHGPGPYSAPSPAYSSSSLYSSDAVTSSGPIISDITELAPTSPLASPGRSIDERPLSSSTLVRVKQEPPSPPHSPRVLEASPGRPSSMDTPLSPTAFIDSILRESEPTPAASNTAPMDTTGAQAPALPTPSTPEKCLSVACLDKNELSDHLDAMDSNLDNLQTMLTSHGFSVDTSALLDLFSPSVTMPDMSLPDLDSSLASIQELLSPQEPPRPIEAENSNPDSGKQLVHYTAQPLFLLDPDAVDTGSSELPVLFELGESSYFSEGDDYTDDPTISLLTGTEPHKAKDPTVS

[10] = biological target: T2, Microphthalmia-associated transcription factor (Homo sapiens, UniProt O75030); test: TRPM1 promoter luciferase signal decrease, dose response, MITF inhibitor project, cell-based, SK-MEL-5, cherry-picked, set 3 (AID 493073); type: functional
T2 sequence (O75030 whole entry): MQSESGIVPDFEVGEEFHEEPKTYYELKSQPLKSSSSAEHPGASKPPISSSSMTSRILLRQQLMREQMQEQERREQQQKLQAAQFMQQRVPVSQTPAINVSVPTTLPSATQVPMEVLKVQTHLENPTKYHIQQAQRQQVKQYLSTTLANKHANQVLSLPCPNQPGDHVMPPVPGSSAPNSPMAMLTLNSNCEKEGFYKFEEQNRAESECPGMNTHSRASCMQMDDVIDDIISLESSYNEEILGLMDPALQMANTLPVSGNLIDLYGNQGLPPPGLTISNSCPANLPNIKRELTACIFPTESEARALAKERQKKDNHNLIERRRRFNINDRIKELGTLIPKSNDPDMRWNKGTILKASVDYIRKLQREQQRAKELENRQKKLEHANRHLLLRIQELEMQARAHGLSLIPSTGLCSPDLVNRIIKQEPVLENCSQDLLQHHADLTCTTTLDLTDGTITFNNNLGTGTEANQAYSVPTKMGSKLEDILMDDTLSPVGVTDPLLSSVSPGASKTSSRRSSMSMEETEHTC

[11] = biological target: Heat shock protein HSP 90-alpha (Homo sapiens, UniProt P07900); type: functional, organism-based
[12] = biological target: T3, High affinity choline transporter 1 (Homo sapiens, UniProt Q9GZV3); test: CHT inhibitors, dose response, cell-based, 5-point CRC, membrane potential dye (AID 504840); type: functional
T3 sequence (Q9GZV3 whole entry): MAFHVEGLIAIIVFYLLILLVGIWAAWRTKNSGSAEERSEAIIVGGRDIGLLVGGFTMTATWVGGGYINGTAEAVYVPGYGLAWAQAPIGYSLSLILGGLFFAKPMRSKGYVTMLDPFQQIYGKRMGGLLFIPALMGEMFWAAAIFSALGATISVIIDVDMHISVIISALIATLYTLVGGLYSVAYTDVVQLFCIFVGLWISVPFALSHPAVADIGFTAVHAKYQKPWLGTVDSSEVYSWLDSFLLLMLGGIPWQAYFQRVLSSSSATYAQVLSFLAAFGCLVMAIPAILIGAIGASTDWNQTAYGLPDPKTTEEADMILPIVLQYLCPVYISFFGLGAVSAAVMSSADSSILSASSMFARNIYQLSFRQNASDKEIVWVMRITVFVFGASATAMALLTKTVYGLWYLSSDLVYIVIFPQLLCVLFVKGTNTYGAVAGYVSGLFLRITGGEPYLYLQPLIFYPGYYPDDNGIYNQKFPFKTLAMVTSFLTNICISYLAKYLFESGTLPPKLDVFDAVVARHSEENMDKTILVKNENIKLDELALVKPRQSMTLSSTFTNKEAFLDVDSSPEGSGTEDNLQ

[13] = biological target: Luciferin 4-monooxygenase (Photinus pyralis, UniProt P08659); test: firefly luciferase enzyme inhibitors, dose response, biochemical, luminescence (AID 1891)
Sequence of Luciferin 4-monooxygenase (P08659 whole entry): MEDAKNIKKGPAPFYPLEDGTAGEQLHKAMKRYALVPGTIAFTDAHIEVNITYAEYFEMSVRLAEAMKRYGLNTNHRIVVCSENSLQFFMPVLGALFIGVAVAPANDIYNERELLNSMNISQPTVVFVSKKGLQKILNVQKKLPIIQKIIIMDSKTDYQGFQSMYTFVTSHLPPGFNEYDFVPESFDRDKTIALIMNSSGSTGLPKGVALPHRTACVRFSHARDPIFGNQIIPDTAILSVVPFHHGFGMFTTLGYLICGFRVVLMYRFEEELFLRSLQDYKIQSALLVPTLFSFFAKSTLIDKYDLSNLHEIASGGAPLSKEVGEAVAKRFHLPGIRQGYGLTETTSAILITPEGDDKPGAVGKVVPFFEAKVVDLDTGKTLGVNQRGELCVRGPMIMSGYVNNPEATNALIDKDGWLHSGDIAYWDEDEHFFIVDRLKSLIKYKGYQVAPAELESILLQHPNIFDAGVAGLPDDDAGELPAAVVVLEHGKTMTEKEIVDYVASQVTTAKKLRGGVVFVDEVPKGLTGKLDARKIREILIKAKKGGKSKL

[14] = Luminescence Cell-Based Dose Confirmation HTS to Identify Inhibitors of Platelet Dense Granule Release. [Related pubchem assays: 1663 (Primary HTS), 1678 (Summary of Project)]; type: functional
[15] = Fluorescence Cell-Based Dose Response to Identify Inhibitors of Thrombin Receptor-Activating Peptide SFLLRN-Mediated P-Selectin Induction on Platelets. [Related pubchem assays: 1663 (Primary HTS), 1889 (retest at dose ), 1891 (counterscreen), 1678 (Project Summary)]; type: functional
[16] = biological target: NADPH oxidase 1 (Homo sapiens, UniProt Q9Y5S8); type: functional, cell-based;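 note: Cell-based assay with luminescence read-out, IC50 derived from inhibitor dose-response curves; intracellular ROS from endogenous NOX1 in intact HT29 colon cancer cells; potency of inhibitors that lower the ROS luminescence signal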
Sequence of NADPH oxidase 1 (Q9Y5S8 whole entry): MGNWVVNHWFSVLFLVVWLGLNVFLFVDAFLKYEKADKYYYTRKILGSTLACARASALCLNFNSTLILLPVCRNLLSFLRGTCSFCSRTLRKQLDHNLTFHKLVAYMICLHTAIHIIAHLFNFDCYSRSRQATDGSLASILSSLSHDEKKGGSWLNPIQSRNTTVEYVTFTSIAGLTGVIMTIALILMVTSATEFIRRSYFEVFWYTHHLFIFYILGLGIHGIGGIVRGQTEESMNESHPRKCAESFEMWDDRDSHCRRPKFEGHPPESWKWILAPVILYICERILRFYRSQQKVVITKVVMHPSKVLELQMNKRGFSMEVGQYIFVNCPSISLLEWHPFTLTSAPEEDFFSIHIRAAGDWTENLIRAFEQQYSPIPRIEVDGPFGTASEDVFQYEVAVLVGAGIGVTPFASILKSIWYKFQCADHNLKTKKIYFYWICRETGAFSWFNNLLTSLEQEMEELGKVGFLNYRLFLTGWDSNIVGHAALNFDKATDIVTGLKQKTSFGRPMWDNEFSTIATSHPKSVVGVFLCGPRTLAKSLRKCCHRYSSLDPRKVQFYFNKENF

[17] = biological target: Protein-tyrosine kinase 2-beta (Homo sapiens, UniProt Q14289);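 note: potency of inhibitors of PYK2 kinase phosphorylation of poly-GT substrate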
Sequence of Protein-tyrosine kinase 2-beta (Q14289 whole entry): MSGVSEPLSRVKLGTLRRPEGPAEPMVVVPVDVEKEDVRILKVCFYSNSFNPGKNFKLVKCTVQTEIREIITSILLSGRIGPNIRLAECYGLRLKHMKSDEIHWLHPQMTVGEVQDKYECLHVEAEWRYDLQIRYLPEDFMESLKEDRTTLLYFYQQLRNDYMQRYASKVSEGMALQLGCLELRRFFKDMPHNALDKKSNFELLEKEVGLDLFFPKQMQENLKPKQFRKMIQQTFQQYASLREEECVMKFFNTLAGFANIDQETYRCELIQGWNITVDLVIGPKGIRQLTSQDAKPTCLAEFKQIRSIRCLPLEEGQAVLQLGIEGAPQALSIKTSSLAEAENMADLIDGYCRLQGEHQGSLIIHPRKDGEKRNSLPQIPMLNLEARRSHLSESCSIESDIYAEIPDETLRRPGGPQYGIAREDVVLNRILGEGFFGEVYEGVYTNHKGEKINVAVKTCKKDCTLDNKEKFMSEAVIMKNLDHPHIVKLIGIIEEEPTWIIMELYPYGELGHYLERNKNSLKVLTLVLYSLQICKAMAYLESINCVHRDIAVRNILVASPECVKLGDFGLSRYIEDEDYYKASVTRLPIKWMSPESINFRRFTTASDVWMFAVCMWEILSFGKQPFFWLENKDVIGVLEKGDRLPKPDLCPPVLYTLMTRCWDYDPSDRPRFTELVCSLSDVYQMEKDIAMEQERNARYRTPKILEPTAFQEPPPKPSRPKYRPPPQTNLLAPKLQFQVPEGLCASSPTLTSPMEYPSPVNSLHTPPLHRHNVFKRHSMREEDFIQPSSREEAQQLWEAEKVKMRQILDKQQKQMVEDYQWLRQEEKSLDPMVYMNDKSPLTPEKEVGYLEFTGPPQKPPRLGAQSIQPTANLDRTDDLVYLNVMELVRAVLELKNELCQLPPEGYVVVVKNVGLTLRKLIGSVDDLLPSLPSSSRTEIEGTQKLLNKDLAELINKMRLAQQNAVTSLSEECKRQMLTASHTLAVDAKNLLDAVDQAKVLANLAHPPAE

[18] = biological target: Voltage-gated inwardly rectifying potassium channel KCNH2 (Homo sapiens, UniProt Q12809); test: hERG protection from proarrhythmic block, potency, dose response, cell-based, thallium flux (AID 2121); type: ADME
Sequence of Voltage-gated inwardly rectifying potassium channel KCNH2 (Q12809 whole entry): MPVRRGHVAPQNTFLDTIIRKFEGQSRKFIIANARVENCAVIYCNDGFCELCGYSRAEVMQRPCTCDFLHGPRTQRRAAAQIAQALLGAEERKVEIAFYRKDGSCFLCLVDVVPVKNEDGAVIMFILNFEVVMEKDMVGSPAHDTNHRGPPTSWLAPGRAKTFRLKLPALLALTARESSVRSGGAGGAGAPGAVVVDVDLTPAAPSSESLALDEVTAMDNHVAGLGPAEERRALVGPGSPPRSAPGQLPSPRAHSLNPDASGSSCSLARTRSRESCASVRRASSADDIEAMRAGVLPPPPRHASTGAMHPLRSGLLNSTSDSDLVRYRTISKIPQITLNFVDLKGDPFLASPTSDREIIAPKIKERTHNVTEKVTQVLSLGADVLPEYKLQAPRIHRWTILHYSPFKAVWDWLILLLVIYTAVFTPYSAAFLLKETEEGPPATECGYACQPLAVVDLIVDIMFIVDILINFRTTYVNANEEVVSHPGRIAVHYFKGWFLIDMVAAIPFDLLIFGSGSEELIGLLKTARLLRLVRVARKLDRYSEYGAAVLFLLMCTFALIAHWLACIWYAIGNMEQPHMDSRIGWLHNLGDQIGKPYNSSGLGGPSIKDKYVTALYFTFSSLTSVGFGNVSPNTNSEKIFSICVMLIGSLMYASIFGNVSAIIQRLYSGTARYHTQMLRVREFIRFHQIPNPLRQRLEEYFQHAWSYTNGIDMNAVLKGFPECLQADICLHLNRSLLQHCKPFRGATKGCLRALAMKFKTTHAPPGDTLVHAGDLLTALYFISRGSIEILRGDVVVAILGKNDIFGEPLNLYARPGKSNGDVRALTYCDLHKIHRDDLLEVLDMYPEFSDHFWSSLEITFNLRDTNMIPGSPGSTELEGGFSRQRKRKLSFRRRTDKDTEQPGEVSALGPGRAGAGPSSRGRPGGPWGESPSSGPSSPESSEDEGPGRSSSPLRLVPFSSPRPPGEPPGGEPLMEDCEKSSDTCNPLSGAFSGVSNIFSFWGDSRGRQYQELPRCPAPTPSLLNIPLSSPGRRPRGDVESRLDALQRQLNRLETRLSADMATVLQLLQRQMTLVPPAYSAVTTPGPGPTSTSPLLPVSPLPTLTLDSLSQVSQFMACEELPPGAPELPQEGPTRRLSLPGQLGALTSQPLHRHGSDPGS

**Q.** Which EC50 [1] does the source give for `CC(=O)SC(C[N+](=O)[O-])c1cn(C(C)=O)c2ccccc12` (stereo not drawn) here?
**A.** Its EC50 is 12.9 µM (inconclusive).

**Q.** And the EC50 [2]?
**A.** Its EC50 is 5.02 µM (inconclusive).

**Q.** What about the IC50 [3] of the same molecule?
**A.** The IC50 was 14.4 µM (not active).

**Q.** What about the EC50 [4] of the same molecule?
**A.** Its EC50 is > 150 µM (inconclusive).

**Q.** What about the EC50 [5] of the same molecule?
**A.** The EC50 was 19.5 µM (active).

**Q.** What about the EC50 [6] of the same molecule?
**A.** Its EC50 is 6.21 µM (inconclusive).

**Q.** And the EC50 [7]?
**A.** The EC50 was 6.74 µM (active).

**Q.** What about the EC50 [8] of the same molecule?
**A.** The EC50 was > 32 µM (inactive).

**Q.** And the EC50 [9]?
**A.** Its EC50 is 6.84 µM (active).

**Q.** What about the AC50 [10] of the same molecule?
**A.** Its AC50 is 3.54 µM (active).

**Q.** What about the AC50 [11] of the same molecule?
**A.** Its AC50 is 1.48 µM (active).

**Q.** What about the IC50 [12] of the same molecule?
**A.** The IC50 was 14.5 µM (active).

**Q.** For `COc1ccccc1C(=O)Nc1cnc(O)nc1O`, which EC50 [13] is on record?
**A.** The EC50 was > 112 µM (not active).

**Q.** What about the EC50 [14] of the same molecule?
**A.** The EC50 was 0.25 µM (active).

**Q.** What about the EC50 [15] of the same molecule?
**A.** Its EC50 is < 0.3 µM (active).

**Q.** Which IC50 [16] does the source give for `Ic1ccc(-c2nc(-c3ccccc3)c(-c3ccccc3)[nH]2)cc1` here?
**A.** The IC50 was > 17 µM (not active).

**Q.** With `COCCO/C(O)=C1\C(C)=NC2=C(C(=O)CC(c3cccs3)C2)C1c1ccsc1` (stereo not drawn) as the molecule, how does the IC50 [17] read?
**A.** Its IC50 is > 69.5 µM (not active).

**Q.** For `COC(=O)c1ccc(CSc2ncnc3sc(C)c(C)c23)o1`, which EC50 [18] is on record?
**A.** The EC50 was 11.1 µM (active).
